Measurements taken from publication PMC9780942, “Antimicrobial Activity and Immunomodulatory Properties of Acidocin A, the Pediocin-like Bacteriocin with the Non-Canonical Structure” (Membranes, 2022).
Positions of bridges follow the written chain, without caps; N, C: chain ends. Residues, ends and D or L forms follow the SMILES beside them. No end group written: not given here.

What was measured:
L. monocytogenes EGD = assay type: cell-based, Listeria monocytogenes; conditions: 24 h
Protocol: (§1) Antibacterial activity of recombinant bacteriocins against a number of Gram-positive and Gram-negative bacteria (Table S2) was determined by the method of two-fold serial dilutions in a liquid medium. Two-fold serial dilutions of bacteriocins were prepared in sterile 96-well flat-bottom polystyrene microplates (Eppendorf, Hamburg, Germany) (Cat. No. 0030730.011) in a volume of 50 µL of sterile 0.1% bovine serum albumin (BSA) (SERVA Electrophoresis GmbH, Heidelberg, Germany) to prevent non-specific sorption of peptides to the surface of the plate wells [23]. Mid-log phase bacterial cultures were diluted with the 2x Mueller-Hinton broth (MHB) (Sigma-Aldrich, St. Louis, MO, USA) to a final cell concentration of 10^6 colony forming units (CFU) per mL. To determine the activity of bacteriocins against Listeria and Enterococci, 3% tryptic soy broth (TSB) (Merck-Millipore, Burlington, MA, USA) was used instead of MHB. Aliquots of 50 μL of diluted bacterial suspensions were added to each well of the plate, which was then incubated at 37 °C and 950 rpm for 24 h using thermostatable plate shaker PST-60HL-4 (Biosan, Riga, Latvia). As a negative control, 50 µL of the sterile growth medium (2xMHB or 6% TSB) was added to the wells containing 50 µL of 0.1% BSA. The values of the minimum inhibitory concentrations (MIC) were determined as the minimum concentration of the peptide, at which there was no visible growth of bacterial culture. Incubation for 2 h with 20 µg/mL chromogenic substrate resazurin (Sigma-Aldrich, St. Louis, MO, USA) was used to detect viable bacterial cells if they were difficult to visually detect. To study the effect of inorganic salts on the antimicrobial activity of bacteriocins, antibacterial activity assay was carried out in MHB medium supplemented with 0.9% NaCl.

E. coli SQ110 = assay type: cell-based; conditions: SQ110, 24 h
Protocol: as §1

A. baumannii XDR CI 2675 = assay type: cell-based; conditions: XDR CI 2675, 24 h
Protocol: as §1

M. phlei Ac-1221 = assay type: cell-based; conditions: 24 h
Protocol: as §1

E. coli ML-35p = assay type: cell-based; conditions: 24 h
Protocol: as §1

S. aureus 209P = assay type: cell-based; conditions: 24 h
Protocol: as §1

M. luteus Ac-2229 = assay type: cell-based; conditions: Ac-2229, 24 h
Protocol: as §1

E. coli XDR CI 1057 = assay type: cell-based; conditions: XDR CI 1057, 24 h
Protocol: as §1

B. subtilis B-886 = assay type: cell-based; conditions: B-886, 24 h
Protocol: as §1

L. lactis MK66 = assay type: cell-based; conditions: MK66, 24 h
Protocol: as §1

B. licheniformis B-511 = assay type: cell-based; conditions: 24 h
Protocol: as §1

E. coli ATCC 25922 = assay type: cell-based; conditions: ATCC 25922, 24 h
Protocol: as §1

[1] = system: P. aeruginosa MDR CI 1995; assay type: cell-based; conditions: MDR CI 1995, 24 h
Protocol: as §1

L. lactis MK43 = experiment: Antibacterial activity assay (MIC), two-fold serial dilutions in liquid medium; assay type: cell-based; conditions: for Minimum Inhibitory Concentration: MHB, 0.1% BSA, 37 °C, 24 h, no visible growth; for Minimum inhibitory concentration in the presence of NaCl: MHB supplemented with 0.9% NaCl
Protocol: as §1

| Molecule | Minimum Inhibitory Concentration (L. monocytogenes EGD) [µM] | Minimum Inhibitory Concentration (E. coli SQ110) [µM] | Minimum Inhibitory Concentration (A. baumannii XDR CI 2675) [µM] | Minimum Inhibitory Concentration (M. phlei Ac-1221) [µM] | Minimum Inhibitory Concentration (E. coli ML-35p) [µM] | Minimum Inhibitory Concentration (S. aureus 209P) [µM] | Minimum Inhibitory Concentration (M. luteus Ac-2229) [µM] | Minimum Inhibitory Concentration (E. coli XDR CI 1057) [µM] | Minimum Inhibitory Concentration (B. subtilis B-886) [µM] | Minimum Inhibitory Concentration (L. lactis MK66) [µM] | Minimum Inhibitory Concentration (B. licheniformis B-511) [µM] | Minimum Inhibitory Concentration (E. coli ATCC 25922) [µM] | Minimum Inhibitory Concentration [1] [µM] | Minimum Inhibitory Concentration (L. lactis MK43) [µM] | Minimum inhibitory concentration in the presence of NaCl (E. coli SQ110) [µM] | Minimum inhibitory concentration in the presence of NaCl (E. coli ML-35p) [µM] | Minimum inhibitory concentration in the presence of NaCl (B. subtilis B-886) [µM] | Minimum inhibitory concentration in the presence of NaCl (L. lactis MK66) [µM] | Minimum inhibitory concentration in the presence of NaCl (B. licheniformis B-511) [µM] | Minimum inhibitory concentration in the presence of NaCl (L. lactis MK43) [µM] |
| --- | --- | --- | --- | --- | --- | --- | --- | --- | --- | --- | --- | --- | --- | --- | --- | --- | --- | --- | --- | --- |
| CC[C@H](C)[C@H](NC(=O)[C@H](Cc1ccc(O)cc1)NC(=O)[C@@H](NC(=O)[C@@H](NC(=O)[C@H](CC(N)=O)NC(=O)[C@H](CCC(N)=O)NC(=O)[C@H](CC(=O)O)NC(=O)[C@H](Cc1ccc(O)cc1)NC(=O)[C@H](CCCCN)NC(=O)[C@@H](NC(=O)[C@H](CC(N)=O)NC(=O)[C@H](CCCCN)NC(=O)[C@H](CC(C)C)NC(=O)[C@H](CCCNC(=N)N)NC(=O)[C@@H](NC(=O)[C@H](CCCCN)NC(=O)CNC(=O)[C@H](Cc1c[nH]c2ccccc12)NC(=O)[C@H](CC(C)C)NC(=O)[C@H](CO)NC(=O)[C@H](CC(N)=O)NC(=O)[C@H](CCCCN)NC(=O)[C@@H](NC(=O)[C@H](CS)NC(=O)[C@H](Cc1c[nH]cn1)NC(=O)[C@@H](NC(=O)CNC(=O)[C@H](CC(N)=O)NC(=O)[C@@H](NC(=O)CNC(=O)[C@H](Cc1ccc(O)cc1)NC(=O)[C@H](Cc1ccc(O)cc1)NC(=O)[C@@H](NC(=O)[C@@H](N)CCCCN)[C@@H](C)O)[C@@H](C)O)C(C)C)[C@@H](C)O)C(C)C)C(C)C)[C@@H](C)O)[C@@H](C)O)C(=O)NCC(=O)N[C@@H](CCCNC(=N)N)C(=O)N[C@@H](CC(C)C)C(=O)N[C@@H](CCC(N)=O)C(=O)N[C@@H](CC(=O)O)C(=O)N[C@H](C(=O)N[C@@H](CC(C)C)C(=O)N[C@@H](CC(C)C)C(=O)NCC(=O)N[C@@H](Cc1c[nH]c2ccccc12)C(=O)N[C@@H](C)C(=O)N[C@H](C(=O)NCC(=O)N[C@@H](C)C(=O)N[C@@H](Cc1ccccc1)C(=O)NCC(=O)N[C@@H](CCCCN)C(=O)N[C@H](C(=O)N[C@@H](Cc1ccccc1)C(=O)N[C@@H](Cc1c[nH]cn1)C(=O)O)[C@@H](C)O)[C@@H](C)O)[C@@H](C)CC [OR-7(VI) (DTT reduced)] (H-KTYYGTNGVHCTKNSLWGKVRLKNVKYDQNTTYIGRLQDILLGWATGAFGKTFH-OH; N-terminus and C-terminus assumed) | >32 | >32 | >32 | 32 | >32 | >32 | >32 | >32 | 16 | 4 | 8 | >32 | >32 | >32 | – | – | – | – | – | – |
| HCTKKSLWGKVRLKNVIPGTLCRKQSLPIKQDLKILLGWATGAFGKTFH (disulfide 2-22) [AcdA(d9)] | >32 | 8 | 4 | 4 | 4 | 16 | 16 | 8 | 8 | 2 | 8 | 16 | 16 | 8 | 32 | 16 | > 32 | > 32 | > 32 | > 32 |
| KTYVGNTGYHCTKKSLWGKVRLKNVIPGTLCRKQSLPIKQDLKILLGWATGAFGKTFH (disulfide 11-31) [AcdA(x4)] | >32 | 8 | 4 | 4 | 8 | 16 | 8 | 8 | 8 | 2 | 4 | 16 | 16 | 4 | 32 | 16 | > 32 | > 32 | > 32 | > 32 |
| KTYYGNGVHCTKKSLWGKVRLKNVIPGTLCRKQSLPIKQDLKILLGWATGAFGKTFH (cysteines drawn unpaired) [AcdA(dT) (DTT reduced)] | >32 | 4 | 8 | 4 | 4 | 16 | 16 | 16 | 4 | 1 | 4 | 8 | >32 | 2 | – | – | – | – | – | – |
| KTYYGNGVHCTKKSLWGKVRLKNVIPGTLCRKQSLPIKQDLKILLGWATGAFGKTFH (disulfide 10-30) [AcdA(dT)] | >128 | 1 | 4 | 2 | 2 | 8 | 8 | 8 | 2 | 0.5 | 2 | 4 | 16 | 1 | 8 | 16 | > 32 | 32 | > 32 | > 32 |
| KTYYGNGVHSTKKSLWGKVRLKNVIPGTLSRKQSLPIKQDLKILLGWATGAFGKTFH [AcdA(dT,C11S,C31S)] | >32 | 16 | >32 | 8 | >64 | >32 | 32 | >64 | 4 | 1 | 4 | >64 | >32 | 4 | > 32 | – | > 32 | > 32 | > 32 | > 32 |
| KTYYGTNAVHCTKKSLWGKVRLKNVIPGTLCRKQSLPIKQDLKILLGWATGAFGKTFH (disulfide 11-31) [AcdA(G8A)] | >32 | 4 | 8 | 2 | 8 | 8 | 16 | 8 | 8 | 2 | 8 | 16 | 16 | 4 | 32 | 16 | > 32 | > 32 | > 32 | > 32 |
